# Reference: patent US9845327B2, “Treatment of proteinopathies” (THE GENERAL HOSPITAL CORPORATION, priority 2011, dated 2017)
# Columns and labels:
# [1] = target: T1, GCase polypeptide (Homo sapiens, UniProt P04062); assay: GCase polypeptide levels and post-ER forms by western blot in human iPS dopamine neurons; type: cell-based; settings: wild-type neurons from an unaffected control; 100 μM IFG for 5 days followed by 1 day wash-out
# T1 construct: endogenous in cells; host or cells: human iPS-derived midbrain dopamine neurons (healthy control; PD patient with SNCA triplication, Coriell ND27760)
# T1 sequence (P04062 40-536): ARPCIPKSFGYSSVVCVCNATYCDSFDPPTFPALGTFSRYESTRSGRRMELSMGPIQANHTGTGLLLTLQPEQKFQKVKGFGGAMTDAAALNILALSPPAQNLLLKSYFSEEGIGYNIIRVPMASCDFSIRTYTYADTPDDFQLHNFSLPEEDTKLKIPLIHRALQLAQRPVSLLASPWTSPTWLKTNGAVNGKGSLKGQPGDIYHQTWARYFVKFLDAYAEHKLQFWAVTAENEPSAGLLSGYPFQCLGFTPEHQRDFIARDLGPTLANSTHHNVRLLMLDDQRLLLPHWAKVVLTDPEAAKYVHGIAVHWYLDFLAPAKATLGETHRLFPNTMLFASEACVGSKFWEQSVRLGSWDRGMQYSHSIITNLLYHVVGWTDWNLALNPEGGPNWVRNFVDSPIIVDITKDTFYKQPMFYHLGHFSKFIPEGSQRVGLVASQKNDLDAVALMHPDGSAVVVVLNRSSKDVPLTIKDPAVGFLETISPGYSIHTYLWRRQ
# Procedure: (§1) In this Example, human dopamine neurons generated from iPS cells of an unaffected control were treated with a pharmacological chaperone activator of GCase polypeptide, isofagomine (IFG). […] Treatment of wild-type neurons with 100 μM IFG for 5 days followed by 1 day wash-out increased the levels of GCase polypeptide (FIGS. 15A and 15B). This increase was likely due to the fact that wild-type GCase polypeptide was occasionally misfolded in the ER and degraded (about 30% of the total made in the ER), and IFG appeared to also stabilize the wild-type misfolded forms.
# It was also shown in this Example that treatment with the GCase polypeptide activator increased the levels of total GCase protein and increased the post-ER forms, indicating enhancement of flux to the lysosome (FIG. 19B).
# In this Example, the effect of combining the GCase polypeptide pharmacological chaperone IFG with the antioxidant n-acetyl-cysteine (NAC) on GCase polypeptide maturation in PD iPS neurons was tested. Neurons were treated with either IFG, NAC, or IFG and NAC together, and GCase polypeptide maturation was analyzed by western blot.
# Most materials for SDS-PAGE were obtained from Invitrogen (NuPAGE system). Protein lysates were boiled in sample buffer (20 mM Tris, 1% (v/v) glycerol, 180 mM β-mercaptoethanol, 0.003% (w/v) bromophenol blue, 2% (w/v) SDS, pH 6.8), resolved on 4%-12% Bis-Tris polyacrylamide precast gels in a MOPS-SDS running buffer, or 4%-12% Tris-Glycine gels. 10% Tris-Glycine gels were utilized for some GCase polypeptide western blot's (FIGS. 13B, 13D, and 13E, and FIGS. 14C and 14F). […] Blots were blocked in Odyssey blocking buffer (Li-Cor biosciences) containing 0.05% Tween, or 5% non-fat dry milk in TBS-T 0.2%, followed by incubation with primary antibodies (see above for dilutions), and detected with anti-mouse or -rabbit IgG conjugated to IRDye 680 or 800 (1:10,000, Li-Cor biosciences). […] Any nonspecific bands detected were not included in densitometric analyses. […]
# [2] = system: human dopamine neurons generated from iPS cells; assay: Proteolysis by radioactive pulse-chase in human iPS dopamine neurons; type: cell-based; settings: wild-type neurons; 100 μM IFG 5 days, 1 day wash-out
# Procedure: as §1
# In this Example, it was further determined if the effects discussed above could also be replicated with non-native site binding compounds that can act as allosteric activators of GCase polypeptide, and therefore unlike IFG, would not require a washout to activate GCase polypeptide. […]
# Proteolysis of long-lived proteins was determined by radioactive pulse-chase using ^3H-leucine. […] Samples were centrifuged at 20,000×g for 20 min, 4° C., and the radioactivity was measured in 5 ml of scintillation cocktail using a Beckman LS 1701 liquid scintillation counter (Beckman Instruments). Precipitated protein pellets were extracted in 200 μl of Na deoxycholate, 0.1 M NaOH, and radioactivity was determined. Percent proteolysis was calculated as described in detail elsewhere (Kaushik et al. Methods Enzymol. 452: 297, 2009). […]
structure (smiles),measurement,setting,value
"OC[C@H]1CNC[C@@H](O)[C@@H]1O [IFG, isofagomine]",levels of GCase polypeptide,[1],increased
same,"Proteolysis rate, fold increase compared to controls",[2],3 fold
